Data set [1] has as its system rat primary cortical neurons. The data set is described as follows: Neuron survival assay against NMDA insult (LDH release). The data set is classed as cell-based. The following applies: NMDA 20 μM; for protection of rat primary cortical neurons from NMDA insults (LDH release, fold change vs DMSO): compounds 10-30 μg/ml, 11 DIV; for cell death (LDH release, cell cytotoxicity vs DMSO): compound 10 μg/mL, DIV 11. How it is done:
Primary cortical and hippocampal neurons were prepared from embryonic day 18 (E18) Sprague-Dawley rats. Neurons were plated on 24-well plate (TPP, Corning) at a density of 2×10^5 cells per well using Neurobasal medium (Invitrogen) supplemented with 2% B27 (Invitrogen). Neurons at 11-12 days in vitro (12 DIV) were subjected to drug treatment. Neurons were pretreated with the test compound for 2 hours prior to NMDA treatment. 0.1 μM (+)-MK-801 Hydrogen Maleate (Sigma) was added as a positive control. Briefly, the neurons were rinsed with Locke's solution (5 mM potassium chloride, 128 mM sodium chloride, 2.7 mM calcium chloride, 1 mM di-sodium hydrogen orthophosphate, 5 mM HEPES and 10 mM glucose in Milli-Q water) without Mg^2+, and incubated with addition of glycine (10 μM) for 15 minutes. After the incubation, the neurons were co-treated with the test compound (dissolved in Locke's plus glycine solution) and NMDA (20 μM; Sigma) for 20 minutes. Neurons were rinsed with Locke's plus Mg^2+ and replaced with fresh growth medium. The cell death was assayed and quantified using the lactate dehydrogenase release assay (Roche) after 24 hours.
Embryonic rat cortical neurons (11 DIV) were treated with NMDA (20 μM) in the absence or presence of the LC series of compounds (10-30 μg/ml). […] LDH release in the medium after overnight incubation was measured and fold change was calculated when compared to the solvent control, DMSO.
Embryonic rat cortical neurons (DIV 11) were treated with NMDA (20 μM) in the absence or presence of LC-01 or LC-02 (μg/mL). LDH release in the medium after overnight incubation was measured and cell cytotoxicity was calculated in percentage when compared to the solvent control, DMSO.
Embryonic rat cortical neurons (DIV 11) were treated with NMDA (20 μM) in the absence or presence of LC-06 (μg/mL). LDH release in the medium after overnight incubation was measured and cell cytotoxicity was calculated in percentage when compared to the solvent control, DMSO.
Embryonic rat cortical neurons (11 DIV) were treated with NMDA (20 μM) in the absence or presence of LC-24 or LC-25 (μg/mL). LDH release in the medium after overnight incubation was measured and cell cytotoxicity was calculated in percentage when compared to solvent control (DMSO).

The subject of a further data set is NMDA receptor. As to the kind of experiment: Whole-cell patch clamp of NMDA-induced current in hippocampal neurons. Type of data set: cell-based, rat. The following applies: compound 500 uM co-applied with NMDA 200 uM. The procedure:
Hippocampal neurons were prepared from embryonic day 18 Sprague-Dawley rats. After the hippocampus had been removed from the brain, isolated cells were plated onto Poly d-Lysine (PDL) (P0899, Sigma)-coated 35 mm dishes (153066, NUNC) at a density of 3×10^5 cell per plate using Neurobasal Medium (NB) (21103-049, Gibco) with B27 supplement (17504-044, Gibco), penicillin/streptomycin (15140, Gibco) and 1 mM L-glutamine (25030, Gibco). The cell culture was incubated at 37° C. in a humidified atmosphere of 5% CO2 in air. Half of the medium was changed with NB, B27 and 50 μM L-glutamine every 2 to 3 days. On day 12 in vitro (12 DIV), whole-cell patch clamp was performed. The internal solution contained 120 mM cesium chloride, 20 mM tetraethylammonium chloride, 2 mM magnesium chloride, 1 mM calcium chloride and 10 mM HEPES (pH 7.2). The external solution contained 137 mM sodium chloride, 1 mM sodium bicarbonate, 0.34 mM sodium phosphate dibasic, 5.37 mM potassium chloride, 0.44 mM potassium phosphate monobasic, 2.5 mM HEPES (pH 7.4) and 22.2 mM glucose. Samples mixed with 50 μM NMDA (M3262, Sigma) were arranged in linear array of up to 8 individual controlled pipes (List Medical, Germany) which were connected to solution reservoirs. Memantine (10 μM, M9292, Sigma) was used as a positive control. Pipettes were fire-polished to produce a pipette resistance of 3-5 MΩ. Holding potential of patched cells was kept at −80 mV and currents were recorded using Axopatch-200B amplifier (Axon Instruments, USA). Tetrodotoxin (5 μM) and bicuculline methiodide (20 μM) (0109, Tocris) were present in the bath solution to block synaptic transmission mediated by voltage-gated sodium channels and […], respectively. Data was analyzed by pClamp9 software and percentage of inhibition on NMDA-induced current was represented in comparison to solvent control.
The NMDA receptor is a gated ion channel, which allows inflow of current during a nerve impulse. Antagonists to the receptor would prevent the inflow of current.
In FIG. 1A, hippocampal neurons from embryonic day 18 rats were isolated, trypsinized, plated onto 35-mm plates at a density of 3×10^4 cells/plate and cultured in Neurobasal medium (NB) supplemented with B27 nutrient. Rat hippocampal neurons (10-14 DIV) were treated with NMDA (50 μM) in the absence or presence of the compound LC-02 (10 μg/mL). Data is presented as % of NMDA-induced current. DMSO is the solvent control.
In FIG. 1B, NMDA antagonistic effect of LC-02 on current responses of a single hippocampal neuron. NMDA (200 uM) was applied for 2.5 sec every 30 sec but these inter-response intervals have been deleted from the above figure for a better resolution of the kinetics of individual responses (blank space in trace). LC-02 (500 uM) was co-applied with NMDA.
In FIG. 1C, effects of LC-02 on pooled NMDA current responses. Normalized peak and plateau currents are shown in the absence (DMSO) and presence of LC-02.
In FIG. 8, (a) NMDA antagonistic effect of LC-06 on current responses of a single hippocampal neuron. NMDA (200 uM) was applied for 2.5 sec every 30 sec but these inter-response intervals have been deleted from the above figure for a better resolution of the kinetics of individual responses (blank space in trace). LC-06 (500 uM) was co-applied with NMDA. […] (b) Effects of LC-06 on pooled NMDA current responses. Normalized peak and plateau currents are shown in the absence (DMSO) and presence of LC-06.
In FIG. 9, (a) NMDA antagonistic effect of LC-24 on current responses of a single hippocampal neuron. NMDA (200 uM) was applied for 2.5 sec every 30 sec but these inter-response intervals have been deleted from the above figure for a better resolution of the kinetics of individual responses (blank space in trace). LC-24 (500 uM) was co-applied with NMDA. […] (b) Effects of LC-24 on pooled NMDA current responses. Normalized peak and plateau currents are shown in the absence (DMSO) and presence of LC-24. […]

Data on nine compounds can be found in US8722714B2, “Oxazolidine derivatives as NMDA antagonists” (The Honk Kong University of Science and Technology, priority 2008, dated 2014).

`CC[C@@H]1N[C@@H](CC(C)C)C(CC)(CC)O1` [LC-01]: in data set [1], the “protection of rat primary cortical neurons from NMDA insults (LDH release, fold change vs DMSO)” value (“protection … (LDH release, fold change vs DMSO)” for short) is on record as “significantly protected” and the “cell death (LDH release, cell cytotoxicity vs DMSO)” value is “cell death was markedly reduced”.

In the case of `CCC(C)[C@@H]1N[C@@H](CC)OC1(CC)CC` (stereo partly shown) [LC-09], in data set [1], the “protection … (LDH release, fold change vs DMSO)” value is “weaker neuroprotective effects”. In the case of `CCC(C)[C@@H]1N[C@H](CC)OC1(CC)CC` (stereo partly shown) [LC-10], the “protection … (LDH release, fold change vs DMSO)” value in data set [1] is reported as “weaker neuroprotective effects”. For `CCC[C@@H]1N[C@@H](C(C)CC)C(CC)(CC)O1` (stereo partly shown) [LC-11], the “protection … (LDH release, fold change vs DMSO)” value in data set [1] was “weaker neuroprotective effects”.

In the case of `CCC[C@H]1N[C@@H](C(C)CC)C(CC)(CC)O1` (stereo partly shown) [LC-12], in data set [1], the “protection … (LDH release, fold change vs DMSO)” value is given as “weaker neuroprotective effects”. The same measure, in the same setting: in the case of `CCCC1(CCC)O[C@@H](CC)N[C@H]1C(C)CC` (stereo partly shown) [LC-14] it was “weaker neuroprotective effects”. As to `CCC[C@H]1N[C@@H](C(C)CC)C(CCC)(CCC)O1` (stereo partly shown) [LC-15], the “protection … (LDH release, fold change vs DMSO)” value in data set [1] was “weaker neuroprotective effects”.

Take `CCCC1(CCC)O[C@@H](c2ccccc2)N[C@H]1C(C)CC` (stereo partly shown) [LC-16]: the “protection … (LDH release, fold change vs DMSO)” value in data set [1] is “weaker neuroprotective effects”. Regarding `CCC[C@H]1N[C@@H](Cc2ccccc2)C(CC)(CC)O1` [LC-25], the “pooled NMDA current responses (normalized peak and plateau currents)” value with NMDA receptor (vs DMSO, n=6) is recorded as “significantly inhibits NMDA-induced current”. The “recovery of NMDA-induced current after compound was washed out” value in the data set with NMDA receptor (single hippocampal neuron) is given as “Partial recovery of NMDA-induced current”. In data set [1], the “protection … (LDH release, fold change vs DMSO)” value is “significantly protected” and the “cell death (LDH release, cell cytotoxicity vs DMSO)” value is given as “cell death was markedly reduced”.
